# Legend:
# [1] = tested on: iagA′-lacZcat fusion in S. typhi strain Ty267; experiment: "Biotype 100" plate screen for carbon-based substrates that repress the iagA′-lacZcat fusion (β-galactosidase activity); format: cell-based; conditions: "Biotype 100" cupule, amount of substrate not known; favourable LB medium; 36 hours at 37° C.; control cupule without substrate 11 250
# Experimental: Each of the strains described above was cultured at 37° C. on agar or in TCS broth. The P-galactosidase activity was determined using 4-methyl-umbelliferyl-p-D-galactopyranoside sold by the company Sigma, according to the technique of Klarsfeld et al. (Mol. Mibrobiol., 1994, 13, 585-597). The results, expressed in P-galactosidase units (fluorescence per hour and per OD600), represent the mean of the values obtained in at least three independent experiments. The standard deviations were less than 10% of the values presented.
# A “Biotype 100”® plate sold by the company BioMerieux is composed of 100 microcupules. Each micro-cupule contains a dehydrated carbon-based substrate, with the exception of the first cupule, which is a control without substrate (the amount of dehydrated substrate per cupule is not given by the manufacturer).
# In the context of the present example, these plates were used to search for carbon-based compounds which would block the expression of the invasion genes in Salmonella.
# For this, the S. typhi strain Ty267, which is a derivative of the parental strain Ty2 carrying the iagA′-lacZcat transcriptional fusion (Table I), was cultured in TCS broth for 18 hours at 37° C. with shaking (200 rpm).
# This culture was then diluted 100-fold in favourable LB medium (0.6 ml of culture for 60 ml of favourable LB), and then this suspension was used immediately to seed the 100 cupules of a “Biotype 100”® plate, in a proportion of 450 μl of suspension per cupule.
# After incubation for 36 hours in an incubator at 37° C., the activity of the iagA′-lacZcat fusion in the Ty267 strain was determined for the culture of each cupule.
# By comparing the value of the P-galactosidase activity measured in a cupule containing a carbon-based substrate with that of the control cupule without substrate, it was possible to investigate whether a substrate had no effect on, activated or repressed the expression of the iagA′-lacZcat fusion.
# The S. typhi strain Ty267 (iagA′-lacZ fusion), suspended in the favourable LB medium, was used to seed the “Biotype 100”® plates.
# The β-galactosidase activity expressed by the iagA′-lacZ fusion was determined for the culture in each cupule. With respect to the β-galactosidase activity measured in the control cupule without substrate (11 250 β-galactosidase units), no substrate caused an increase in the expression of the iagA′-lacZ fusion.
# Shigella sonnei = conditions: 1.25 g/l; cited from earlier work
# [2] = tested on: Gram-positive or Gram-negative microorganisms; conditions: acid pH (free acid form); cited from earlier work
compound,measurement,setting,value
CCCCCCCC(=O)[O-].[Na+] [sodium caprylate],β-galactosidase activity expressed by the iagA′-lacZ fusion in the cupule,[1],47 β-galactosidase units
same,bactericidal activity in vitro on Shigella sonnei,Shigella sonnei,no bactericidal activity
same,bactericidal activity on a great variety of Gram-positive or Gram-negative microorganisms,[2],bactericidal activity

# Reference: patent US20040116523A1, “Use of c4-c10 acids for preventing gram-negative bacterial infections” (priority 2000, published 2004)
